Experimental data: a compilation of properties of binary mixtures (doi:10.1016/j.molliq.2012.11.030)

Experiment: xn = mol fraction of the nth substance listed
Details: 298.15 K, 101 kPa

CC(=O)[O-].CC[NH3+] + O
Details | electrical conductivity [S/m]
x1 = 0.003 | 0.782
x1 = 0.0103 | 1.89
x2 = 0 | 0.222
x2 = 0.2027 | 0.452
x2 = 0.3481 | 0.745
x2 = 0.7999 | 2.48
x2 = 0.8502 | 2.75
x2 = 0.9436 | 3.1
x2 = 0.9502 | 3.11
x2 = 0.96 | 3.08
x2 = 0.9685 | 2.9
x2 = 0.9799 | 2.65
